# From patent US10179194B2, “Self-assembling peptides, peptidomimetics and peptidic conjugates as building blocks for biofabrication and printing” (Agency for Science, Technology and Research, priority 2013, dated 2019)
# Peptide text beside a SMILES is read from it.
# Tests used:
# [1] = Stimuli-responsive gelation (minimum gelation concentration); type: physicochemical
# Procedure: Ac-LIVAGK-NH2 (SEQ ID NO: 20) forms hydrogels at 20 mg/mL in water, 12 mg/mL in saline, 7.5 mg/mL in PBS, and 10 mg/mL in 10 mM NaOH.(B) The rigidity, as represented by the storage modulus (G′), of 20 mg/mL Ac-LIVAGK-NH2 hydrogels increases by one order of magnitude to 10 kPa when dissolved in normal saline(NaCl) as compared to water at 1 kPa. In phosphate buffered saline (PBS), G′ increases to 40 kPa. The stiffness also increases with peptide concentration. (C) The addition of sodium hydroxide (NaOH) enhances the rigidity of 20 mg/mL Ac-LIVAGK-NH2 (SEQ ID NO: 20) hydrogel from 1 kPa in water to 80 kPa. The rigidity increases with NaOH concentration. (D) Hydrogel droplet arrays of various dimensions can be obtained by mixing equivolumes of peptide solution (such as 10 mg/mL Ac-ILVAGK-NH2)(SEQ ID NO: 20) and PBS containing small molecules. Bioactive moieties can also be encapsulated; 1 μL droplets with green food colouring and 488 nm emission quantum dots, 2 μL droplets with red food colouring and 568 nm emission fluorophore conjugated to a secondary antibody, and 5 μL droplets with methylene blue and DAPI. (E) Hydrogel “noodles” are obtained by extruding 5 mg/mL Ac-ILVAGK-NH2 (SEQ ID NO: 20) solution through a 27 gauge needle into a concentrated salt bath.
# • Peptide sequence: Ac-LIVAGD-COOH (SEQ ID NO: 17) • Molecular weight: 629.56 • (1) Temperature Sweep Study for Ac-LD6 (L) (SEQ ID NO : 17): • (a) The peptide mixture was then placed on rheometer lower plate. […]
# [2] = Rheology of hydrogels, storage modulus G'; type: physicochemical
# Procedure: Hydrogel samples were prepared in polydimethysiloxane moulds to obtain approximately 1 mm thick, 8 mm diameter discs. Dynamic strain and oscillatory frequency sweep experiments were carried out using the ARES-G2 Rheometer (TA Instruments, Piscataway, N.J.) with 8 mm titanium parallel plate geometry. The effects of varying several parameters on viscoelastic properties were studied as follows: • (1) Effect of varying concentration • (2) Effect of varying ionic strength of the solution (water vs saline vs PBS) • (3) Effect of varying pH Extrusion from 27 Gauge Needle
# Rheology. Hydrogel samples were prepared in polydimethysiloxane moulds to obtain approximately 1 mm thick, 8 mm diameter discs. Dynamic strain and oscillatory frequency sweep experiments were carried out using the ARES-G2 Rheometer (TA Instruments, Piscataway, N.J.) with 8 mm titanium parallel plate geometry.
# [3] = system: New Zealand White rabbits; experiment: Induced disc degeneration rabbit model (injectable therapy); type: in vivo
# Procedure: FIG. 14 Evaluation of an injectable therapy in a rabbit model of degenerative disc disease. • (A) In this animal model, three lumbar intervertebral discs between the L3 and L6 vertebrae were punctured and their nucleus pulposus (NP) content aspirated. One month post-injury, two different treatments were injected into the NP space. The first treatment consists of 20 mg/mL of Ac-LIVAGK-NH2 (SEQ ID NO: 20) in PBS and gadolinium-DTPA (Gd-DTPA), a T1 MRI contrast agent. The second therapy consists of labeled donor rabbit NP cells encapsulated in 20 mg/mL of Ac-LIVAGK-NH2 (SEQ ID NO: 20) in PBS. The cells were labeled with FITC-conjugated iron oxide nanoparticles, which are T2 MRI contrastophores. […] In comparison, damaged untreated discs (D) are darker. […] The healthy disc was obtained from animal R245 (disc L2/L3), while the damaged disc was from R334 (L4/L5). The hydrogel treated disc imaged is L3/L4 from R245 and the cell therapy disc is L5/L6 of R328. At higher magnification, faintly fluorescent cells could be observed for discs that received cell therapy.
# Induced disc degeneration rabbit model. […]
# We designed an injectable therapy wherein our stimuli-responsive peptide Ac-LIVAGK-NH2 (SEQ ID NO: 20) was administered as a low viscosity solution which subsequently gels in situ. This therapy was evaluated in the induced disc degeneration rabbit model. […]
# guinea pigs = details: guinea pig, in vivo
# [4] = system: Chinese hamster ovary cells
# [5] = Self-assembly into aggregates and fibres in aqueous solution; type: physicochemical
# Procedure: It is in some embodiments stable in aqueous solution at physiological conditions at ambient temperature for a period of time in the range from 1 day to 1 month or more. It may in some embodiments be stable in aqueous solution at physiological conditions at 90° C. for at least 1 hour, at least 2 hours, at least 3 hours, at least 4 hours or at least 5 hours An amphiphilic linear sequence of an amphiphilic peptide and/or peptoid including an amphiphilic linear peptide and/or peptoid, is capable of providing a self assembling α-helical fiber in aqueous solution under physiological conditions. The peptides/peptoids (typically 3-7-mers) in the L- or D-form can self assemble into supramolecular helical fibers which are organized into mesh-like structures mimicking biological substances such as collagen. It has previously been observed in X-ray crystallography that peptides of a length of 3 to 6 amino acids with repetitive alanine containing sequences and an acetylated […] take a helical conformation (Hatakeyama, Y, et al, Angew. Chem. Int. Ed. (2009) 8695-8698). Using peptides with an amphiphilic sequence, Ac-LD6 (L), the formation of aggregates has for example been observed already at 0.1 mg/ml. […]
compound,measurement,setting,value
CC[C@H](C)[C@H](NC(=O)[C@H](CC(C)C)NC(C)=O)C(=O)N[C@H](C(=O)N[C@@H](C)C(=O)NCC(=O)N[C@@H](CCCCN)C(N)=O)C(C)C [Ac-LIVAGK-NH2] (Ac-LIVAGK-NH2),concentration at which hydrogels form,[1]; in 10 mM NaOH,10 mg/mL
same,concentration at which hydrogels form,[1]; in PBS,7.5 mg/mL
same,concentration at which hydrogels form,[1]; in saline,12 mg/mL
same,concentration at which hydrogels form,[1]; in water,20 mg/mL
same,storage modulus (G′),[2]; 20 mg/mL hydrogel in normal saline (NaCl),10 kPa
same,storage modulus (G′),[2]; 20 mg/mL hydrogel in phosphate buffered saline (PBS),40 kPa
same,storage modulus (G′),[2]; 20 mg/mL hydrogel in water,1 kPa
same,storage modulus (G′),[2]; 20 mg/mL hydrogel with addition of sodium hydroxide (NaOH),80 kPa
same,immune response and tissue integration in histology sections of discs,"[3]; 20 mg/mL in PBS with Gd-DTPA, or with labeled donor rabbit NP cells, two month post-treatment",integrated with the tissue and did not elicit an immune response
same,time to gelation in situ,[3]; approximately 100 μL of 20 mg/mL peptide in PBS injected into a damaged NP,≤ 5 min
same,irritation or allergic reactions,guinea pigs,no irritation or allergic reactions
same,reactions following subsequent immune challenge,guinea pigs,no reactions were observed
same,systemic signs of toxicity,guinea pigs,did not exhibit any systemic signs of toxicity
same,Breaks SB (chromosome break),[4],2
same,Breaks TB (chromatid break),[4],3
same,Cells with aberrations (excluding gaps),[4],5
same,D (deletion),[4],0
same,Gaps SG (chromosome gap),[4],2
same,Inter Chromosomal Rearrangements CR (complex),[4],0
same,Inter Chromosomal Rearrangements DC (dicentric chromosome),[4],0
same,Inter Chromosomal Rearrangements QR (quadradial),[4],0
same,Inter Chromosomal Rearrangements R (ring),[4],0
same,Inter Chromosomal Rearrangements TR (triradial),[4],0
same,Other aberrations DM (double minute),[4],0
same,Other aberrations PV (pulverized),[4],0
same,mutagenicity (genotoxicity assays),[4],non-mutagenic
Ac-LIVAGD-OH [Ac-LD6 (L)],concentration at which formation of aggregates is observed,[5],0.1 mg/mL
same,concentration at which peptide monomers align to form fibrous structures,[5],1 mg/mL
